According to patent US8614215B2, “Quinoxaline inhibitors of phosphoinositide-3-kinases (PI3Ks)” (Merck Serono SA, priority 2007, dated 2013):

Test system: Human recombinant GST-PI3K
Assay: PI3K induced-lipid phosphorylation, neomycin-SPA scintillation proximity assay
Type: biochemical
Details: Human recombinant GST-PI3K, SPA
From the text: The efficacy of compounds of the invention in inhibiting the PI3K induced-lipid phosphorylation may be tested in the following binding assay. The assay combines the scintillation proximity assay technology (SPA, Amersham) with the capacity of neomycin (a polycationic antibiotic) to bind phospholipids with high affinity and specificity. The Scintillation Proximity Assay is based on the properties of weakly emitting isotopes (such as ^3H, ^125I, ^33P). Coating SPA beads with neomycin allows the detection of phosphorylated lipid substrates after incubation with recombinant PI3K and radioactive ATP in the same well, by capturing the radioactive phospholipids to the SPA beads through their specific binding to neomycin.
To a 96 wells MTP containing 10 μL of the test compound of Formula (I) (solubilized in 10% DMSO; […]), the following assay components are added: 1) 10 μL of lipid micelles 2) 20 μL of Kinase buffer ([^33P]γATP162 μM/300 nCi, MgCl2 2.5 mM, DTT 2.5 mM, Na3VO4 25 uM in Hepes 40 mM, pH 7.4) and 3) 10 μL (100 ng) of Human recombinant GST-PI3K (in Hepes 40 mM, pH 7.4, ethylenglycol 4%). After incubation at room temperature for 120 minutes, with gentle agitation, the reaction is stopped by addition of 200 μL of a solution containing 250 μg of neomycin-coated PVT SPA beads, ATP 60 mM and EDTA 6.2 mM in PBS. The assay is further incubated at room temperature for 60 minutes with gentle agitation to allow binding of phospholipids to neomycin-SPA beads. After precipitation of the neomycin-coated PVT SPA beads for 5 minutes at 1500×g, radioactive PtdIns(3)P is quantified by scintillation counting in a Wallac MicroBeta™ plate counter.
The values indicated in Table I below refer to the IC50 (μM) with respect to PI3K, i.e. the amount necessary to achieve 50% inhibition of said target. Said values show a considerable inhibitory potency of quinoxaline compounds with regard to PI3K.

Row | Structure (SMILES) | IC50 [nM]
1 | COc1ccc(C(C)C)c(Nc2nc3ccccc3nc2NS(=O)(=O)c2cn(C)cn2)c1 [Example 30, N-{3-[(2-Isopropyl-5-methoxyphenyl)amino]quinoxalin-2-yl}-1-methyl-1H-imidazole-4-sulfonamide] | 200
2 | COC(=O)c1ccc(OC)cc1Nc1nc2ccccc2nc1NS(C)(=O)=O [Example 3, methyl 4-methoxy-2-({3-[(methylsulfonyl)amino]quinoxalin-2-yl}amino)benzoate] | 1650
3 | COc1cc(Nc2nc3ccccc3nc2NS(=O)(=O)CCCS(C)(=O)=O)cc(C(=O)NCCO)c1 [Example 73, N-(2-Hydroxyethyl)-3-methoxy-5-{[3-({[3-(methylsulfonyl)propyl]sulfonyl}amino)quinoxalin-2-yl]amino}benzamide] | 350
4 | COc1ccc(CCCO)c(Nc2nc3ccccc3nc2NS(=O)(=O)c2cccc(NC(=O)COCc3ccccc3)c2)c1 [Example 72] | 480
5 | COc1ccc(CC2CCCCC2)c(Nc2nc3ccccc3nc2NS(=O)(=O)c2cccnc2)c1 [Example 19, N-(3-{[2-(cyclohexylmethyl)-5-methoxyphenyl]amino}quinoxalin-2-yl)pyridine-3-sulfonamide] | 490
6 | COc1ccc(CCO)c(Nc2nc3ccccc3nc2NS(=O)(=O)CCCS(C)(=O)=O)c1 [Example 61, N-(3-{[2-(2-Hydroxyethyl)-5-methoxyphenyl]amino}quinoxalin-2-yl)-3-(methylsulfonyl)propane-1-sulfonamide] | 120
7 | COc1ccc(CCO)c(Nc2nc3ccccc3nc2NS(=O)(=O)c2ccc(C)[n+]([O-])c2)c1 [Example 33, N-(3-{[2-(2-Hydroxyethyl)-5-methoxyphenyl]amino}quinoxalin-2-yl)-6-methylpyridine-3-sulfonamide 1-oxide] | 106
8 | COCCNC(=O)c1cc(Nc2nc3ccccc3nc2NS(=O)(=O)c2cn(C)cn2)cc(OC)c1 [Example 80, 3-Methoxy-N-(2-methoxyethyl)-5-[(3-{[(1-methyl-1H-imidazol-4-yl)sulfonyl]amino}quinoxalin-2-yl)amino]benzamide] | 400
9 | COc1ccc(CC2CCCC2)c(Nc2nc3ccccc3nc2NS(=O)(=O)c2cn(C)cn2)c1 [Example 24, N-(3-{[2-(cyclopentylmethyl)-5-methoxyphenyl]amino}quinoxalin-2-yl)-1-methyl-1H-imidazole-4-sulfonamide] | 180
10 | COc1cc(CN(C)C)cc(Nc2nc3ccccc3nc2NS(=O)(=O)c2cn(C)cn2)c1 [Example 95, N-[3-({3-[(Dimethylamino)methyl]-5-methoxyphenyl}amino)quinoxalin-2-yl]-1-methyl-1H-imidazole-4-sulfonamide] | 1100
11 | CCCS(=O)(=O)Nc1nc2ccccc2nc1Nc1cc(OC)ccc1CCS(C)(=O)=O [Example 53, N-[3-({5-Methoxy-2-[2-(methylsulfonyl)ethyl]phenyl}amino)quinoxalin-2-yl]propane-1-sulfonamide] | 87
12 | COc1ccc(CC2CCCCC2)c(Nc2nc3ccccc3nc2NS(=O)(=O)c2ccc(CN(C)C)cc2)c1 [Example 87, N-(3-{[2-(cyclohexylmethyl)-5-methoxyphenyl]amino}quinoxalin-2-yl)-4-[(dimethylamino)methyl]benzenesulfonamide] | 760
13 | COc1ccc(C(=O)O)c(Nc2nc3ccccc3nc2NS(=O)(=O)c2cccnc2)c1 [Example 98, 4-methoxy-2-({3-[(pyridin-3-ylsulfonyl)amino]quinoxalin-2-yl}amino)benzoic acid] | 4680
14 | CCS(=O)(=O)Nc1nc2ccccc2nc1Nc1cc(OC)ccc1CCS(C)(=O)=O [Example 51, N-[3-({5-Methoxy-2-[2-(methylsulfonyl)ethyl]phenyl}amino)quinoxalin-2-yl]ethanesulfonamide] | 88
15 | COc1ccc(CCO)c(Nc2nc3ccccc3nc2NS(=O)(=O)C2CCS(=O)(=O)C2)c1 (centres unmarked) [Example 56] | 86
16 | COc1ccc(CCCO)c(Nc2nc3ccccc3nc2NS(=O)(=O)c2c(C)noc2C)c1 [Example 42, N-(3-{[2-(3-Hydroxpropyl)-5-methoxyphenyl]amino}quinoxalin-2-yl)-3,5-dimethylisoxazole-4-sulfonamide] | 130
17 | COc1ccc(CCCO)c(Nc2nc3ccccc3nc2NS(=O)(=O)C2CCN(C(=O)OCc3ccccc3)CC2)c1 [Example 66, Benzyl 4-{[(3-{[2-(3-hydroxypropyl)-5-methoxyphenyl]amino}quinoxalin-2-yl)amino]sulfonyl}piperidine-1-carboxylate] | 720
18 | COc1cc(Nc2nc3ccccc3nc2NS(=O)(=O)c2cn(C)cn2)cc(C(=O)NCCO)c1 [Example 67, N-(2-Hydroxyethyl)-3-methoxy-5-[(3-{[(1-methyl-1H-imidazol-4-yl)sulfonyl]amino}quinoxalin-2-yl)amino]benzamide] | 100
19 | COc1ccc(CCS(C)(=O)=O)c(Nc2nc3ccccc3nc2NS(=O)(=O)CCCS(C)(=O)=O)c1 [Example 59, N-[3-({5-Methoxy-2-[2-(methylsulfonyl)ethyl]phenyl}amino)quinoxalin-2-yl]-3-(methylsulfonyl)propane-1-sulfonamide] | 350
20 | COc1ccc(CCS(C)(=O)=O)c(Nc2nc3ccccc3nc2NS(C)(=O)=O)c1 [Example 44, N-[3-({5-Methoxy-2-[2-(methylsulfonyl)ethyl]phenyl}amino)quinoxalin-2-yl]methanesulfonamide] | 200
21 | COc1cc(Nc2nc3ccccc3nc2NS(=O)(=O)c2cccnc2)cc(C(=O)N2CCOCC2)c1 [Example 5, N-(3-{[3-methoxy-5-(morpholin-4-ylcarbonyl)phenyl]amino}quinoxalin-2-yl)pyridine-3-sulfonamide] | 3100

Next, values leading:

Row | IC50 [nM] | Structure (SMILES)
22 | 84 | COc1ccc(CCCO)c(Nc2nc3ccccc3nc2NS(=O)(=O)c2cn(C)c(CO)n2)c1 [Example 74, 2-(Hydroxymethyl)-N-(3-{[2-(3-hydroxypropyl)-5-methoxyphenyl]amino}quinoxalin-2-yl)-1-methyl-1H-imidazole-4-sulfonamide]
23 | 26 | COc1ccc(CCCO)c(Nc2nc3ccccc3nc2NS(=O)(=O)C2CCNCC2)c1 [Example 99, N-(3-{[2-(3-Hydroxypropyl)-5-methoxyphenyl]amino}quinoxalin-2-yl)piperidine-4-sulfonamide]
24 | 64 | COc1ccc(CCCO)c(Nc2nc3ccccc3nc2NS(C)(=O)=O)c1 [Example 46, N-(3-{[2-(3-Hydroxypropyl)-5-methoxyphenyl]amino}quinoxalin-2-yl)methanesulfonamide]
25 | 23 | COc1ccc(CCO)c(Nc2nc3ccccc3nc2NS(=O)(=O)c2ccc(F)cc2)c1 [Example 36, 4-Fluoro-N-(3-{[2-(2-hydroxyethyl)-5-methoxyphenyl]amino}quinoxalin-2-yl)benzenesulfonamide]
26 | 50 | COc1ccc(CCCS(C)(=O)=O)c(Nc2nc3ccccc3nc2NS(=O)(=O)c2cn(C)cn2)c1 [Example 68, N-[3-({5-Methoxy-2-[3-(methylsulfonyl)propyl]phenyl}amino)quinoxalin-2-yl]-1-methyl-1H-imidazole-4-sulfonamide]
27 | 27 | COc1ccc(CCO)c(Nc2nc3ccccc3nc2NS(=O)(=O)c2ccc(NC(=O)CN(C)C)cc2)c1 [Example 70, 2-Dimethylamino-N-(4-{[(3-{[2-(2-hydroxyethyl)-5-methoxyphenyl]amino}quinoxalin-2-yl)]sulfamoyl}phenyl)-acetamide]
28 | 48 | COc1ccc(CCO)c(Nc2nc3ccccc3nc2NS(=O)(=O)c2cn(C)cn2)c1 [Example 35, N-(3-{[2-(2-Hydroxyethyl)-5-methoxyphenyl]amino}quinoxalin-2-yl)-1-methyl-1H-imidazole-4-sulfonamide]
29 | 30 | COc1ccc(CCCO)c(Nc2nc3ccccc3nc2NS(=O)(=O)c2cccc(NC(=O)CN(C)C)c2)c1 [Example 78, 2-Dimethylamino-N-(3-{[(3-{[2-(3-hydroxypropyl)-5-methoxyphenyl]amino}quinoxalin-2-yl)]sulfamoyl}phenyl)-acetamide]
30 | 35 | COc1ccc(CC2CCSCC2)c(Nc2nc3ccccc3nc2NS(=O)(=O)c2ccc(CN(C)C)cc2)c1 [Example 88, 4-[(dimethylamino)methyl]-N-(3-{[5-methoxy-2-(tetrahydro-2H-thiopyran-4-ylmethyl)phenyl]amino}quinoxalin-2-yl)benzenesulfonamide]
31 | 70 | COC(=O)CCc1ccc(S(=O)(=O)Nc2nc3ccccc3nc2Nc2cc(OC)ccc2CCO)cc1 [Example 41, Methyl 3-(4-{[(3-{[2-(2-hydroxyethyl)-5-methoxyphenyl]amino}quinoxalin-2-yl)amino]sulfonyl}phenyl)propanoate]
32 | 42 | COc1ccc(CCS(C)(=O)=O)c(Nc2nc3ccccc3nc2NS(=O)(=O)c2ccccc2)c1 [Example 55, N-[3-({5-Methoxy-2-[2-(methylsulfonyl)ethyl]phenyl}amino)quinoxalin-2-yl]benzenesulfonamide]
